Assays:
sperm [1] = experiment: Split quality PV (Example 6); assay type: cell-based, Jersey bull; conditions: for PV: Hoechst 12 μL/2 mL, resulting pH 6.70
Method: (§1) A single Jersey bull was collected at an initial sperm concentration 1810×10^6 sperm/ml in a volume of 3.9 ml. The progressive motility of the sperm was 65% with normal morphologies greater than 50%.
(§2) Sperm were suspended at 320 million per mL in 30 mL a first buffer, (TALP described in table 1 at a pH 7.4) with 12 μL of Hoechst 33342 per 2 mL (48 μM) of stain and incubated for 1 hour at 34° C. Stained sperm was then placed as 1 mL aliquots in sample tubes and a 1 mL volume of the appropriate TALP was added. The same second buffer was used as example 1, namely a modified 5.60 pH TALP.
(§3) Each of the stained samples was sorted on a MoFlo SX (Beckman Coulter, USA) as described in Example 6. Screen shots were taken and the dead gate intensity and the split quality were measured in the same way described in Example 1 and recorded in TABLE 14.

[2] = test system: membrane compromised sperm; experiment: Dead gate intensity, yellow 5 and phenol red at higher concentrations (Example 6); assay type: cell-based, Jersey bull; conditions: for Intensity: Hoechst 12 μL/2 mL
Method: as §1, §2, §3

sperm [3] = experiment: Split quality, height of peak divided by height of valley (Example 5); assay type: cell-based, Jersey bull
Method: (§4) A single Jersey bull was collected at an initial sperm concentration 1900×10^6 sperm/ml in a volume of 5 ml. The progressive motility of the sperm was 65% with normal morphologies greater than 65%.
(§5) The entire ejaculate of sperm was suspended in first staining buffer, specifically a 7.4 pH TALP described in TABLE 1, to a concentration of 160×10^6 sperm per mL (determined on nucleocounter) and divided into three aliquots of about 20 mL into 50 mL Falcon tubes and pre-warmed for 10 minutes at 34° C. The DNA selective fluorescent dye, Hoechst 33342, was added and samples were held at 34° C. for 60 minutes. 3 different Hoechst 33342 Stain Levels were used=12 μL, 14 μL and 16 μL per 2 mL (effective concentrations of 48 μM, 56 μM, 64 μM).
(§6) Preparation of the second buffer including the dead quenching dye—A 2 L bag of TALP, described in TABLE 1, was adjusted to pH 5.60 using HCl and then sterile filtered. […] For each of the four dyes tested (R40-red food dye No. 40, Y5—yellow food dye No. 5, Y6—yellow food dye No. 6 and PR—phenol red), an appropriate number of milligrams of each powder was placed in a Erlenmeyer Flask and then an exact amount of TALP pH 5.60 was added to create a 250 μM concentration of the dye. The result was a working TALP stock for each dye with a 100% (125 μM) relative amount of dye 50% relative (62.5 μM) and 20% relative (25 μM) solutions were made by dilution of 100% by TALP pH 5.60.
(§7) Single tubes of stained sperm at each of the three Hoechst 33342 concentrations were treated with TALP pH 5.60 which had no dead quenching dye present. Single tubes using Vitamin B12 (red colored chemical) with stock concentration of 15 μM (12% relative) were tested.
(§8) After this “bulk” staining for 60 minutes, 1 mL aliquots of stained sperm were combined with 1 mL aliquots of the second buffer including the dead quenching dyes. Samples sat for approximately 30 minutes at room temperature before being analyzed on a MoFlo SX (Beckman Coulter, USA) sperm sorting flow cytometer. Event rates were held as close to 13,000 as possible at the point of data acquisition.
(§9) The total number of individual treatments was 42 tubes, each containing 2 mL of stained sample. The alignment of the sorter was established using nuclei and confirmed with live sample from the 50% Red 40 series. Once good alignment was established, each tube was placed on the sorter long enough to establish a stabile dead gate population (about 30 seconds) and then a screenshot was taken and saved as a .jpeg image. This approach of rapidly documenting each sample is used to assure the most consistent alignment between all samples. Realignment of sorter will not cause differences in the intensities of live and dead gate populations but will cause differences in split quality.
(§10) FIG. 4 illustrates an example histogram. The ratio of dead gate intensity divided by live gate intensity is created by dividing the distance “A” by the distance “B” shown as a percentage. Lower values mean higher levels of quenching. The ratio of peak height divided by valley height is created by dividing the distance “C” by the distance “D”. A value of 1.00 means “no split” while higher values mean “better splits”.

[4] = test system: membrane compromised sperm; experiment: Dead gate intensity divided by live gate intensity, flow cytometer (Example 5); assay type: cell-based; conditions: for ability to create a dead gate population (ordering of the four dyes): from dead and live intensity data of Table 13
Method: as §4, §5, §6, §7, §8, §9, §10

sperm [5] = experiment: Post thaw motility Deer (Example 3); assay type: cell-based; conditions: post thaw 0 HR; RED TALP with 16 μL Hoechst 33342, Y6 with 14 μL
Method: Each of deer and elk were collected in the Tris-egg yolk catch fluid described as a catch media in Example 1, and shipped for sorting.
A portion of each of the deer and the elk were stained by the red food dye No. 40 treatment 40% with 16 μL Hoechst 33342 and the yellow food dye No. 6 treatment with 14 μL Hoechst 33342 as described in Example 1.
Samples were each bulk sorted with the same machine and parameters described in Example 1. Both sorted X and sorted Y sperm were collected into a single catch. The sorted samples were then frozen like those described in Example 1.
Frozen thawed samples were then tested for post thaw motilities and post thaw DNA fragmentation. Post thaw motilities were slightly higher in Elk sorted with a yellow quencher, while a more significant difference existed in progressive motility. In Table 10, post thaw DNA fragmentation in Elk can be seen at about double after 48 hours when red food dye No. 40 is compared to yellow food dye No. 6 as a dead quencher.

[6] = dye 62.5 μM, Hoechst 16 μL/2 mL
[7] = dye 25 μM, Average over Hoechst levels
[8] = dye 62.5 μM, Average over Hoechst levels
[9] = dye 62.5 μM, Hoechst 12 μL/2 mL
[10] = dye 62.5 μM, Hoechst 14 μL/2 mL
[11] = dye 125 μM, Average over Hoechst levels

Row | SMILES | Height of Peak/Height of Valley (sperm [3]; dye 25 μM, Hoechst 16 μL/2 mL) | Height of Peak/Height of Valley (sperm [3]; [6]) | Dead Intensity [4, 7] [%] | Dead Intensity ([4]; dye 25 μM, Hoechst 12 μL/2 mL) [%] | Dead Intensity ([4]; dye 25 μM, Hoechst 14 μL/2 mL) [%] | Dead Intensity ([4]; dye 25 μM, Hoechst 16 μL/2 mL) [%] | Dead Intensity [4, 8] [%] | Dead Intensity [4, 9] [%] | Dead Intensity [4, 10] [%] | Dead Intensity [4, 6] [%] | Dead Intensity [4, 11] [%] | Dead Intensity ([4]; dye 125 μM, Hoechst 12 μL/2 mL) [%] | Dead Intensity ([4]; dye 125 μM, Hoechst 14 μL/2 mL) [%] | Dead Intensity ([4]; dye 125 μM, Hoechst 16 μL/2 mL) [%] | PV (sperm [1]; dye 62.5 μM) | Progressive (sperm [5]) | Intensity ([2]; dye 62.5 μM, resulting pH 6.70) [%] | Height of Peak/Height of Valley (sperm [3]; dye 125 μM, Hoechst 14 μL/2 mL) | ability to create a dead gate population (ordering of the four dyes) [4] | also measured
1 | O=S1(=O)OC(c2ccc(O)cc2)(c2ccc(O)cc2)c2ccccc21 [Phenol Red, phenolsulfonphthalein] | 1.00 | 1.00 | 94 | 94 | 97 | 90 | 87 | 90 | 90 | 80 | 79 | 80 | 80 | 78 |  |  |  |  |  | split improvement in understained sample (sperm [1]; 12 μL/2 mL Hoechst 33342, control samples had no split): created a split improvement; PV (sperm [1]; dye 125 μM): 1.00; amount of dye needed for a similar dead gate intensity ratio as red food dye No. 40 and yellow food dye No. 6 [2]: twelve; Intensity ([2]; dye 125 μM, resulting pH 6.70): 79%; Intensity ([2]; dye 250 μM, resulting pH 6.70): 70%; Intensity ([2]; dye 500 μM, resulting pH 6.70): 67%; Intensity ([2]; dye 750 μM, resulting pH 6.70): 55%; Intensity ([2]; dye 875 μM, resulting pH 6.70): 45%; Intensity ([2]; dye 1250 μM, second buffer pH 5.60, resulting pH 6.70): 41%; Height of Peak/Height of Valley (sperm [3]; dye 125 μM, Hoechst 16 μL/2 mL): 1.00
2 | COc1cc(S(=O)(=O)O)c(C)cc1N=Nc1c(O)ccc2cc(S(=O)(=O)O)ccc12 [Red 40, 6-hydroxy-5-[(2-methoxy-5-methyl-4-sulfophenyl)azo]-2-naphthalenesulfonic acid, reference compound] | 1.00 | 1.00 | 68 | 68 | 72 | 65 | 52 | 53 | 53 | 50 | 38 | 37 | 41 | 35 | 1.00 | 43.0 | 53 | 2.00 | about equal and better than the remaining dyes | Height of Peak/Height of Valley (sperm [3]; dye 25 μM, Average for 12 μL and 14 μL stain series): 2.00
3 | O=S(=O)([O-])c1ccc(N=Nc2c(O)ccc3cc(S(=O)(=O)[O-])ccc23)cc1.[Na+].[Na+] [Yellow 6, Disodium 6-hydroxy-5[(4-sulfophenyl)azo]-2-naphthalenesulfononate] |  | 1.00 | 71 | 68 | 74 | 70 | 51 | 50 | 52 | 52 | 39 | 37 | 40 | 40 | 1.00 | 53.2 | 50 | 1.80 | about equal and better than the remaining dyes | Motile (sperm [5]): 67.5; Height of Peak/Height of Valley (sperm [3]; [9]): 1.70
